In PubChem BioAssay AID743283 (The Scripps Research Institute Molecular Screening Center, 2014):
Calls of active or inactive are those of the source.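 The calls were made as follows: active = IC50 at or below 10 µM; inactive = IC50 above 10 µM.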

Test system: HEK293 Gal4-VP16 luciferase reporter counterscreen
Assay: VP16-driven transactivation reporter suppression potency – cell-based, luminescence, HEK293, powder samples, round 000, counter-screen for COUP-TFII inhibitor project, late-stage follow-up (AID 743283)

Row | Compound | IC50
1 | Cc1sc2ncnc(NCC3COc4ccccc4O3)c2c1C (centres undefined) | > 85.4 µM (inactive)
2 | COc1ccc(NS(=O)(=O)c2cccc(NC(=O)c3ccc(Cl)nc3)c2)cc1 | > 28.5 µM (inactive)
3 | Clc1ccc(OCCN2CCN(c3ncnc4sccc34)CC2)cc1 | > 85.4 µM (inactive)
4 | Cc1cc(-n2nc3ccccc3n2)c2oc(SCC(=O)NC(C)(C)C)nc2c1 | 79.3 µM (inactive)
5 | CCOC(=O)C1CCCN(S(=O)(=O)c2ccc(S(=O)(=O)N(CC)CC)cc2)C1 (centres undefined) | > 85.4 µM (inactive)
6 | Cc1nn(C)c(C)c1CN(C)S(=O)(=O)c1ccc2ccccc2c1 | > 85.4 µM (inactive)
7 | COc1ccc(NS(=O)(=O)c2ccc(-c3coc(C)n3)cc2)cc1OC | > 85.4 µM (inactive)
8 | COc1ccc(OC)c(CCNC(=O)Cn2nc(C)c3c(C)n(-c4ccc(C)cc4)nc3c2=O)c1 | > 28.5 µM (inactive)
9 | Cn1nccc1C(=O)NC1CCCc2c1cnn2-c1ccc(C(C)(C)C)cc1 (centres undefined) | > 85.4 µM (inactive)
10 | Cc1cc(C)c(S(=O)(=O)NCc2ccncc2)c(C)c1 | > 85.4 µM (inactive)
11 | Cc1ccc(OCCN2CCN(c3ncnc4sc(C)c(C)c34)CC2)cc1 | > 85.4 µM (inactive)
12 | CC(=O)Nc1ccccc1OCC(=O)c1cc(C)n(Cc2cccs2)c1C | 8.67 µM
13 | Cc1ccc(S(=O)(=O)CC2CSc3nc4ccccc4n32)cc1 (centres undefined) | > 85.4 µM (inactive)
14 | CCOC(=O)N1CCN(C(=O)CSCC(=O)Nc2nc(-c3ccc(-c4ccccc4)cc3)cs2)CC1 | 33.9 µM (inactive)
15 | CCN(CC)S(=O)(=O)c1cccc(NC(=O)CNc2cccc(S(=O)(=O)N3CCCC3)c2)c1 | > 85.4 µM (inactive)
16 | CCC1CCCCN1C(=O)c1cc(COc2ccc3ncccc3c2)on1 (centres undefined) | > 85.4 µM (inactive)
17 | O=S(=O)(NCC1CCCO1)c1ccc(-c2ccc(S(=O)(=O)NCC3CCCO3)cc2)cc1 (centres undefined) | > 85.4 µM (inactive)
18 | O=C(Nc1ccncc1)c1ccc(Cl)c(S(=O)(=O)N2CCc3ccccc32)c1 | 37 µM (inactive)
19 | CN(CC1CCCO1)S(=O)(=O)c1ccc(C(=O)Nc2nc3cc4c(cc3s2)OCO4)cc1 (centres undefined) | > 42.7 µM (inactive)
20 | COc1ccc(CN(C)c2ccc(S(=O)(=O)N3CCN(C)CC3)cc2[N+](=O)[O-])cc1OC | > 85.4 µM (inactive)
21 | COc1ccc(C2=Nn3c([n+](C)c4ccccc43)SC2)cc1 | > 85.4 µM (inactive)
22 | Cc1sc2ncnc(NCCc3ccc(S(N)(=O)=O)cc3)c2c1C | > 85.4 µM (inactive)
23 | CC(Nc1ncnc2ccccc12)c1ccccc1 (centres undefined) | > 85.4 µM (inactive)
24 | COc1ccc(CCNc2ncnc3sccc23)cc1OC | > 85.4 µM (inactive)
25 | CCOc1cc(S(=O)(=O)NCc2ccncc2)ccc1Cl | > 85.4 µM (inactive)
26 | Cc1cc(-n2c(C)cc(C(=O)CSc3ncnc4ccccc34)c2C)no1 | > 85.4 µM (inactive)
27 | COc1ccc(CCNc2ncnc3sc(C)cc23)cc1OC | 30.2 µM (inactive)
28 | CC1Cc2cc(-c3csc(NC(=O)Cc4cccs4)n3)ccc2N1S(C)(=O)=O (centres undefined) | 11.5 µM (inactive)
29 | Cc1oc(-c2ccc(Cl)cc2)nc1CS(=O)CC(=O)NCCCN1CCN(Cc2ccccc2)CC1 (centres undefined) | > 28.5 µM (inactive)
